Measurements: PMC6429200, “Synthesis and Broad Antiviral Activity of Novel 2-aryl-isoindolin-1-ones towards Diverse Enterovirus A71 Clinical Isolates” (Molecules, 2019)

Legend:
EV-A71 strain BrCr = assay: CPE inhibition assay for anti-EV-A71 in Vero cells, BrCr strain; assay type: cell-based, Enterovirus 71 (EV-A71); conditions: for BrCr SI: CC50/EC50; for EC50: Enterovirus A, EVA71, Vero cells, 100TCID50, 48 h
Description: (§1) An in-vitro antiviral assay was established using the Africa monkey kidney cell line Vero which was infected with different EV-A71 clinical isolates (BrCr, H, Shenzhen98 and Jiangsu52). A total of 24 synthetic compounds were initially screened in such an assay to determine their inhibitory effect on virus replication at 3-fold diluted concentrations serial (400~0.18 μM). The 50% effective concentration (EC50) of each compound was calculated according to its inhibitory rate values with the Reed–Muench method. The 50% cytotoxic concentration (CC50) was defined as the concentration that inhibited 50% cellular growth in comparison with the controls. The selectivity index (SI) was calculated as CC50/EC50. […] Generally, the EV-A71 H strain was less sensitive to most of the active compounds as compared to the other virus strains.
(§2) EV-A71 strain ShenZhen98 (SZ98) was isolated from the throat swab sample of an HFMD case which occurred in 1998 in China. This was kindly provided by Dr. Qi Jin, Institute of Pathogen Biology, Chinese Academy of Medical Science and Peking Union Medical School, Beijing, China. EV-A71 strains BrCr (VR-1775) and H (VR-1432) were purchased from the ATCC. The EV-A71 strain JS52 was a kind gift from Dr. Xiangzhong Ye, Beijing Wantai Biological Pharmacy Enterprise Co., Ltd. EV-A71 were all passaged in Vero cells.
(§3) The anti-EV-A71 activity of compounds was determined by the CPE inhibition method. Briefly, cells (3 × 10^4 cells/well) were plated into 96-well culture plates for incubation for 24 h. The medium was then removed and cells were infected with EV-A71 with 100TCID50 (50% tissue culture infective doses) in serum-free medium for 1 h at 37 °C. Then, the unbound viruses were removed and various concentrations of compounds were supplemented and incubated for another 48 h. The EC50 was determined by the Reed–Muench method. The selectivity index was calculated as the ratio of CC50/EC50 [15].

[1] = test system: EV-A71 strain Jiangsu52 (JS52); assay: CPE inhibition assay for anti-EV-A71 in Vero cells, Jiangsu52 strain; assay type: cell-based, Enterovirus 71 (EV-A71); conditions: for Jiangsu52 SI: CC50/EC50; for EC50: Enterovirus A, EVA71, Vero cells, 100TCID50, 48 h
Description: as §1, §2, §3

EV-A71 strain H = assay: CPE inhibition assay for anti-EV-A71 in Vero cells, H strain; assay type: cell-based, Enterovirus 71 (EV-A71); conditions: for H SI: CC50/EC50; for EC50: Enterovirus A, EVA71, Vero cells, 100TCID50, 48 h
Description: as §1, §2, §3

[2] = Cytotoxicity assay (CPE) on Vero cells; assay type: cell-based; conditions: African green monkey; Vero cells, 3 days of incubation, Reed–Muench; read-out: CC50
Description: as §1
African green monkey kidney (Vero) cells were purchased from the American Type Culture Collection (ATCC) and were cultured in minimum essential medium (MEM) supplemented with 10% fetal bovine serum (FBS) (GIBCO) and antibiotics (100 U/mL penicillin and […] streptomycin) at 37 °C in a 5% CO2 incubator.
The cytotoxic effects of compounds on Vero cells were detected by the cytopathic effect (CPE) assay. Briefly, cells (3 × 10^4 cells/well) were seeded into 96-well culture plates and incubated overnight. Then, the medium was removed and different concentrations of compounds were applied in triplicate. After 3 days of incubation, the CC50 was defined as the concentration that inhibited 50% cellular growth in comparison with the untreated controls, as calculated by the Reed–Muench method.

[3] = test system: EV-A71 strain ShenZhen98 (SZ98); assay: CPE inhibition assay for anti-EV-A71 in Vero cells, Shenzhen98 strain; assay type: cell-based, Enterovirus 71 (EV-A71); conditions: for Shenzhen98 SI: CC50/EC50; for EC50: Enterovirus A, EVA71, Vero cells, 100TCID50, 48 h
Description: as §1, §2, §3

| SMILES | BrCr SI (EV-A71 strain BrCr) | Jiangsu52 SI [1] | H SI (EV-A71 strain H) | CC50 at 3 days [2] [µM] | Shenzhen98 SI [3] | EC50 [1] [µM] | EC50 (EV-A71 strain H) [µM] | EC50 (EV-A71 strain BrCr) [µM] | EC50 [3] [µM] |
| --- | --- | --- | --- | --- | --- | --- | --- | --- | --- |
| O=C1c2ccccc2CN1c1ccc(-c2ccccc2)cc1 [Compound A6, 2-([1,1’-biphenyl]-4-yl)isoindolin-1-one] | / (/ represents selectivity index (SI) value of less than 10) | / (/ represents selectivity index (SI) value of less than 10) | / (/ represents selectivity index (SI) value of less than 10) | 218 ± 22.3 | / (/ represents selectivity index (SI) value of less than 10) | – | – | – | – |
| CCCN(CCC)c1ccc2c(c1)CN(c1ccc(OC)cc1)C2=O [Compound B4, 5-(dipropylamino)-2-(4-methoxyphenyl)isoindolin-1-one] | / (/ represents selectivity index (SI) value of less than 10) | / (/ represents selectivity index (SI) value of less than 10) | / (/ represents selectivity index (SI) value of less than 10) | 124 ± 12.6 | / (/ represents selectivity index (SI) value of less than 10) | – | – | – | – |
| O=C1c2cc(-c3ccccc3)ccc2CN1c1ccc(Cl)cc1 [Compound D1] | / (/ represents selectivity index (SI) value of less than 10) | 2 | / (/ represents selectivity index (SI) value of less than 10) | 115 | / (/ represents selectivity index (SI) value of less than 10) | 56.5 ± 14.5 | 66.7 | – | – |
| CCC(=O)Nc1ccc2c(c1)C(=O)N(c1ccc(OC)cc1)C2 [Compound C1, N-(2-(4-methoxyphenyl)-3-oxoisoindolin-5-yl)propionamide] | 26 | 25 | / (/ represents selectivity index (SI) value of less than 10) | 152 ± 27 | 26 | 5.91 ± 0.65 | > 44.4 | 5.85 ± 0.6 | 5.85 ± 0.6 |
| CCC(=O)Nc1ccc2c(c1)CN(c1ccc(C)cc1)C2=O [Compound C3, N-(1-oxo-2-(p-tolyl)isoindolin-5-yl)propionamide] | / (/ represents selectivity index (SI) value of less than 10) | / (/ represents selectivity index (SI) value of less than 10) | / (/ represents selectivity index (SI) value of less than 10) | 113 ± 17.2 | / (/ represents selectivity index (SI) value of less than 10) | – | – | – | – |
| O=C(c1ccc(N2Cc3ccccc3C2=O)cc1)N1CCOCC1 [Compound A12, 2-(4-(morpholin-4-carbonyl)phenyl)isoindolin-1-one] | / (/ represents selectivity index (SI) value of less than 10) | / (/ represents selectivity index (SI) value of less than 10) | / (/ represents selectivity index (SI) value of less than 10) | 180 ± 27.3 | / (/ represents selectivity index (SI) value of less than 10) | 30.3 ± 2.38 | 24.4 ± 9.37 | 27 ± 3.38 | 30.3 ± 2.38 |
| CN1CCN(C(=O)c2ccc(N3Cc4ccccc4C3=O)cc2)CC1 [Compound A11, 2-(4-(4-methylpiperazine-1-carbonyl)phenyl)isoindolin-1-one] | / (/ represents selectivity index (SI) value of less than 10) | / (/ represents selectivity index (SI) value of less than 10) | / (/ represents selectivity index (SI) value of less than 10) | 115 | / (/ represents selectivity index (SI) value of less than 10) | – | – | – | – |
| CCCN(CCC)c1ccc2c(c1)C(=O)N(c1ccc(OC)cc1)C2 [Compound B2, 6-(dipropylamino)-2-(4-methoxyphenyl)isoindolin-1-one] | / (/ represents selectivity index (SI) value of less than 10) | / (/ represents selectivity index (SI) value of less than 10) | / (/ represents selectivity index (SI) value of less than 10) | 257 ± 35.3 | / (/ represents selectivity index (SI) value of less than 10) | 40.3 ± 5.54 | – | 34.6 ± 6.54 | 34.6 ± 6.54 |
